Assay results as given in patent US11236047B2 (ASTEX THERAPEUTICS LIMITED, priority 2017, dated 2022).

Experiments:
LINE-1 DNA methylation = LINE-1 DNA methylation in blood samples, repeat dose study; type: in vivo; conditions: monkeys; 3 mg/kg subcutaneously 3x weekly; until day 22; p<0.05 vs level prior to initial dosing
Excerpt: Blood samples were drawn periodically to assay LINE-1 DNA methylation.

[1] = Tolerability of subcutaneous SGI-110 formulation in rabbits; type: in vivo
Procedure: (§1) The formulation was well-tolerated in the species tested. […] Rabbits tolerated the 5-day regimen well, up to a dose of 1.5 mg/kg/day, which is equivalent to […] in humans, and the weekly regimen up to a dose of 1.5 mg/kg/week for 3 weeks.

[2] = Tolerability of subcutaneous SGI-110 formulation in cynomolgus monkeys; type: in vivo
Procedure: as §1
(§2) Cynomolgus monkeys tolerated the weekly regimen well, up to a dose of 3.0 mg/kg/week for 3 weeks, which is equivalent to […]. Rats tolerated much higher doses: 30 mg/kg/day over 5 days; and 20 mg/kg twice weekly for 4 weeks.

[3] = Tolerability of subcutaneous SGI-110 formulation in rats; type: in vivo
Procedure: as §1, §2

Molm-13 AML cell line [4] = assay: Combination protocol for measuring apoptosis (cleaved caspase-3), Molm-13; type: cell-based; conditions: SGI-110 10 nM daily for three days, isoindolinone 20 nM added on third day, 24 hrs, alone or combined, vehicle control 8.72
Procedure: (§3) Combination Protocol for Measuring Apoptosis
(§4) SGI-110 was added daily for three days. […] Percentage apoptosis was measured as percentage fluorescent cells with cleaved caspase-3 in a Guava easyCyte HT cytometer (Millipore). Cleaved caspase-3 staining was recorded in the FL1 channel, with unstained and DMSO control wells being used to set the gated stained and unstained cell populations.
(§5) Table 1 summarises the % apoptosis seen in Molm-13, MV-4-11, or ML-2 with the indicated compound treatments.

MV-4-11 AML cell line [5] = assay: Combination protocol for measuring apoptosis (cleaved caspase-3), MV-4-11; type: cell-based; conditions: SGI-110 10 nM daily for three days, isoindolinone 20 nM added on third day, 24 hrs, alone or combined, vehicle control 13.69
Procedure: as §3, §4, §5

ML-2 AML cell line [6] = assay: Combination protocol for measuring apoptosis (cleaved caspase-3), ML-2; type: cell-based; conditions: SGI-110 10 nM daily for three days, isoindolinone 100 nM added on third day, 24 hrs, alone or combined, vehicle control 3.32
Procedure: as §3, §4, §5

[7] = in vivo, sc
Procedure: Three regimens were evaluated: a) once daily subcutaneous dose in rats and rabbits for 5 days; b) once weekly subcutaneous dose in rabbits and cynomolgus monkeys for 28 days as tolerated; and c) twice weekly subcutaneous dose in rats for 28 days as tolerated.

Molm-13 AML cell line [8] = assay: Combination protocol for proliferation in dose matrix (Alamar blue), Molm-13; type: cell-based
Procedure: (§6) Combination Protocol for Proliferation in Dose Matrix
(§7) AML cell lines were seeded onto 96-well tissue culture plates in triplicates at a concentration of 1×10^4 cells/well. […] At the end of compound treatment, 20 μl Alamar blue was added. After further 5-6 hr incubation at 37° C. the plates were read on a Spectramax Gemini reader (Molecular Devices; excitation 535 nm, emission 590 nm).

MV-4-11 AML cell line [9] = assay: Combination protocol for proliferation in dose matrix (Alamar blue), MV-4-11; type: cell-based
Procedure: as §6, §7

ML-2 AML cell line [10] = assay: Combination protocol for proliferation in dose matrix (Alamar blue), ML-2; type: cell-based
Procedure: as §6, §7

[11] = SGI-110 0 μM + isoindolinone 0.001 μM
[12] = SGI-110 0 μM + isoindolinone 0.003 μM
[13] = SGI-110 0 μM + isoindolinone 0.01 μM
[14] = SGI-110 0 μM + isoindolinone 0.03 μM
[15] = SGI-110 0 μM + isoindolinone 0.1 μM
[16] = SGI-110 0 μM + isoindolinone 0.3 μM
[17] = SGI-110 0 μM + isoindolinone 1 μM
[18] = SGI-110 0 μM + isoindolinone 3 μM
[19] = SGI-110 0 μM + isoindolinone 10 μM

Nc1ncn([C@H]2C[C@H](OP(=O)(O)OC[C@H]3O[C@@H](n4cnc5c(=O)[nH]c(N)nc54)C[C@@H]3O)[C@@H](CO)O2)c(=O)n1 [SGI-110, 2′-deoxy-5-azacytidylyl-(3′5′)-2′-deoxy-guanosine]
LINE-1 DNA methylation (LINE-1 DNA methylation): Decreases in LINE-1 DNA methylation
tolerated dose, once daily subcutaneous dose for 5 days ([1]; SGI-110 sodium salt 100 mg/mL in glycol/glycerin/ethanol (65:25:10)): ≤ 1.5 mg/kg/day
tolerated dose, once weekly subcutaneous regimen ([1]; for 3 weeks): ≤ 1.5 mg/kg/week
tolerated dose, once weekly subcutaneous regimen ([2]; cynomolgus monkeys, for 3 weeks): ≤ 3.0 mg/kg/week
equivalent dose of tolerated weekly regimen dose ([2]; from cynomolgus monkeys 3.0 mg/kg/week): 36 mg/kg/week
tolerated dose, once daily subcutaneous regimen ([3]; over 5 days): 30 mg/kg/day
tolerated dose, twice weekly subcutaneous regimen ([3]; twice weekly for 4 weeks): 20 mg/kg
% Apoptosis (Molm-13 AML cell line [4]): 36.08%
% Apoptosis (MV-4-11 AML cell line [5]): 26.12%
% Apoptosis (ML-2 AML cell line [6]): 3.93%
myelosuppression and recovery [7]: less myelosuppression and faster recovery

CC[C@@](O)(c1cc(F)c2c(c1)C(=O)N([C@H](c1ccc(Cl)cc1)[C@H](C)C(=O)O)[C@@]2(OC)c1ccc(Cl)cc1)C1CCOCC1 [(2S,3S)-3-(4-chlorophenyl)-3-[(1R)-1-(4-chlorophenyl)-7-fluoro-5-[(1S)-1-hydroxy-1-(oxan-4-yl)propyl]-1-methoxy-3-oxo-2,3-dihydro-1H-isoindol-2-yl]-2-methylpropanoic Acid]
% Apoptosis (Molm-13 AML cell line [4]): 32.48%
% Apoptosis (MV-4-11 AML cell line [5]): 30.83%
% Apoptosis (ML-2 AML cell line [6]): 15.15%
Percentage viability relative to DMSO control (Molm-13 AML cell line [8]; [11]): 98%
Percentage viability relative to DMSO control (Molm-13 AML cell line [8]; [12]): 99%
Percentage viability relative to DMSO control (Molm-13 AML cell line [8]; [13]): 84%
Percentage viability relative to DMSO control (Molm-13 AML cell line [8]; [14]): 52%
Percentage viability relative to DMSO control (Molm-13 AML cell line [8]; [15]): 37%
Percentage viability relative to DMSO control (Molm-13 AML cell line [8]; [16]): 27%
Percentage viability relative to DMSO control (Molm-13 AML cell line [8]; [17]): 24%
Percentage viability relative to DMSO control (Molm-13 AML cell line [8]; [18]): 22%
Percentage viability relative to DMSO control (Molm-13 AML cell line [8]; [19]): 15%
Percentage viability relative to DMSO control (MV-4-11 AML cell line [9]; [11]): 92%
Percentage viability relative to DMSO control (MV-4-11 AML cell line [9]; [12]): 82%
Percentage viability relative to DMSO control (MV-4-11 AML cell line [9]; [13]): 70%
Percentage viability relative to DMSO control (MV-4-11 AML cell line [9]; [14]): 54%
Percentage viability relative to DMSO control (MV-4-11 AML cell line [9]; [15]): 29%
Percentage viability relative to DMSO control (MV-4-11 AML cell line [9]; [16]): 16%
Percentage viability relative to DMSO control (MV-4-11 AML cell line [9]; [17]): 13%
Percentage viability relative to DMSO control (MV-4-11 AML cell line [9]; [18]): 13%
Percentage viability relative to DMSO control (MV-4-11 AML cell line [9]; [19]): 12%
Percentage viability relative to DMSO control (ML-2 AML cell line [10]; [11]): 100%
Percentage viability relative to DMSO control (ML-2 AML cell line [10]; [12]): 94%
Percentage viability relative to DMSO control (ML-2 AML cell line [10]; [13]): 78%
Percentage viability relative to DMSO control (ML-2 AML cell line [10]; [14]): 59%
Percentage viability relative to DMSO control (ML-2 AML cell line [10]; [15]): 47%
Percentage viability relative to DMSO control (ML-2 AML cell line [10]; [16]): 30%
Percentage viability relative to DMSO control (ML-2 AML cell line [10]; [17]): 16%
Percentage viability relative to DMSO control (ML-2 AML cell line [10]; [18]): 15%
Percentage viability relative to DMSO control (ML-2 AML cell line [10]; [19]): 9%
